Assay [1] concerns primary cerebellar neuron cultures. Nature of the assay: Membrane cholesterol content, primary cerebellar neuron cultures. The class given is cell-based, rat. The note with it: for membrane cholesterol content: 10 mM for 3 hours in Locke's buffer, control and ethanol-exposed cerebellar cultures. How it is done:
In vitro experiments were used to examine the effects of ethanol on receptor binding and choline acetyltransferase (ChAT) and acetylcholinesterase (AChE) expression in cerebellar neurons. Primary neuronal cultures were generated with postnatal day 8 rat pup cerebellar tissue (Nikolic et al. Genes Dev. 10:816 (1996)). The cultures were maintained with Dulbecco's modified Eagle's medium (DMEM) supplemented with 5% fetal calf serum, 4 mM glutamine, 100 μM non-essential amino acid mixture (Gibco-BRL, Grand Island, N.Y.), 25 mM KCl, and 9 g/L glucose. Ethanol treatment was accomplished by placing the cultures (seeded in 6-well dishes or 96-well plates) in sealed chambers in which 50 mM ethanol was vaporized from a reservoir tray (de la Monte et al. Alcohol Clin. Exp. Res. 24:716 (2000); Banerjee et al. Alcohol Clin. Exp. Res. 22:2093 (1998)). Control cultures were identically treated but with water added to the reservoir tray. The chambers were flushed with gas containing 75% nitrogen, 20% oxygen, and 5% carbon dioxide. After 96 hours incubation at 37° C., the cells were harvested to measure insulin, IGF-I, and IGF-II receptor binding. […] To examine the effects of membrane cholesterol content on growth factor stimulated neuronal viability and function, identically treated 96-well cultures were stimulated with vehicle, 10 nM insulin, 10 nM IGF-I, or 25 nM IGF-II for 10 minutes and then analyzed for ATP content, or for 16 hours and then used to measure viability and ChAT or AChE immunoreactivity with the MICE assay (de la Monte et al., Biotechniques 26:1073 (1999)). ATP content was measured with the ATPLite assay (Packard, Meriden, Conn.). Viability was measured using the CyQuant assay (Molecular Probes, Eugene, Oreg.). Immunoreactivity was measured directly in the cultured wells using the microtiter immunocytochemical ELISA (MICE) assay (de la Monte et al., Biotechniques 26:1073 (1999)).

In assay [2] the test system is ChAT. Briefly: ChAT immunoreactivity (MICE assay). The class given is cell-based, rat. On the procedure:
In vitro experiments were used to examine the effects of ethanol on receptor binding and choline acetyltransferase (ChAT) and acetylcholinesterase (AChE) expression in cerebellar neurons. Primary neuronal cultures were generated with postnatal day 8 rat pup cerebellar tissue (Nikolic et al. Genes Dev. 10:816 (1996)). The cultures were maintained with Dulbecco's modified Eagle's medium (DMEM) supplemented with 5% fetal calf serum, 4 mM glutamine, 100 μM non-essential amino acid mixture (Gibco-BRL, Grand Island, N.Y.), 25 mM KCl, and 9 g/L glucose. Ethanol treatment was accomplished by placing the cultures (seeded in 6-well dishes or 96-well plates) in sealed chambers in which 50 mM ethanol was vaporized from a reservoir tray (de la Monte et al. Alcohol Clin. Exp. Res. 24:716 (2000); Banerjee et al. Alcohol Clin. Exp. Res. 22:2093 (1998)). Control cultures were identically treated but with water added to the reservoir tray. The chambers were flushed with gas containing 75% nitrogen, 20% oxygen, and 5% carbon dioxide. After 96 hours incubation at 37° C., the cells were harvested to measure insulin, IGF-I, and IGF-II receptor binding. Alternatively, the cells were serum-starved for 12 hours and then stimulated with 10 nM insulin, […], 25 nM IGF-II, or vehicle for 16 hours, and RNA was harvested to measure ChAT and AChE expression. Parallel 96-well cultures stimulated with growth factors for 10 minutes were used to measure ATP, or for 16 hours to measure viability, and ChAT or AChE immunoreactivity. To investigate the role of membrane cholesterol content in relation to receptor binding, control and ethanol-exposed cells were treated with vehicle, 10 mM Methyl-β-cyclodextrin (MβCD), or 10 mM aqueous soluble cholesterol in Locke's buffer (154 mM NaCl, 5.6 mM KCl, 2.3 mM CaCl2, 1.0 mM MgCl2, 3.6 mM NaHCO3, 5 mM glucose, 5 mM Hepes, pH 7.4) for 3 hours and then harvested for binding assays. To examine the effects of membrane cholesterol content on growth factor stimulated neuronal viability and function, identically treated 96-well cultures were stimulated with vehicle, 10 nM insulin, 10 nM IGF-I, or 25 nM IGF-II for 10 minutes and then analyzed for ATP content, or for 16 hours and then used to measure viability and ChAT or AChE immunoreactivity with the MICE assay (de la Monte et al., Biotechniques 26:1073 (1999)). ATP content was measured with the ATPLite assay (Packard, Meriden, Conn.). Viability was measured using the CyQuant assay (Molecular Probes, Eugene, Oreg.). Immunoreactivity was measured directly in the cultured wells using the microtiter immunocytochemical ELISA (MICE) assay (de la Monte et al., Biotechniques 26:1073 (1999)).
The concentration of ethanol used was within the range detected in human alcoholics (Fulop et al., Am. J. Med. 80:191 (1986); Jagger et al., Neurosurgery 15:303 (1984)). ChAT and AChE immunoreactivity were measured directly in the cultured cells using the MICE assay (cellular ELISA), with values normalized to cell density.
The effects of cholesterol or MβCD treatment on neuronal viability (FIGS. 19A-19C), ATP production (energy metabolism; FIGS. 19D-19F), ChAT (FIGS. […]) and AChE (FIGS. 19J-19L) immunoreactivity were examined in cells that were treated as described above and stimulated 12 hours with vehicle (control), 10 nM insulin, 10 nM IGF-I, or 25 nM IGF-II in serum-free medium. All assays were performed using 96-well cultures. Viability was measured using the CyQuant assay and ATP content was measured using the ATPLite assay.

Where [3] appears, read: 10 mM for 3 hours, control cells.

The source of these data is patent US9308198B2, “Treatment, prevention, and reversal of alcohol-induced brain disease” (priority 2006, dated 2016).

For the compound `CC(C)CCC[C@@H](C)[C@H]1CC[C@H]2[C@@H]3CC=C4C[C@@H](O)CC[C@]4(C)[C@H]3CC[C@]12C` [cholesterol], in assay [1], the membrane cholesterol content entry is “significantly increased”. In assay [2] (setting [3]), the “basal and growth factor stimulated ChAT expression” value is on record as “muted”. In addition, in assay [2] (10 mM for 3 hours, ethanol-exposed cells, relative to vehicle-treated cells), the “insulin-, IGF-I-, and IGF-II-stimulated levels of ChAT” value is given as “significantly increased”.
`CCO` [ethanol]: the “cerebellar neuron membrane cholesterol content” value in assay [1] (in vitro exposure to 50 mM ethanol for 96 hours) is “significantly reduced”. Moreover, the ChAT immunoreactivity entry in assay [2] (50 mM ethanol for 96 hours, basal, insulin-stimulated and IGF-I stimulated, relative to control) is given as “significantly reduced”.
Methyl-β-cyclodextrin [MβCD]: the membrane cholesterol content result in assay [1] is given as “significantly reduced”. In assay [2] (setting [3]), the “IGF-I- and IGF-II-stimulated ChAT” value is recorded as “significantly increased”; the “insulin-stimulated ChAT” value was “abolished the insulin-stimulated increases in ChAT”. For the same compound, the “ChAT expression relative to control” value in assay [2] (10 mM for 3 hours, ethanol-exposed cells, independent of growth factor stimulation) is reported as “broadly reduced levels”.
